Here are results for ten compounds from ChEMBL document CHEMBL1201862, “PubChem BioAssay data set” (2004).

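Following 48 hours of exposure in 96-well plates, responses at five concentrations were used to interpolate endpoints linearly. GI50 is the concentration that inhibits growth by half.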 Activity calls are given as the source filed them. No stated cut-off is given here; in the data, active = GI50 up to about 1.1 µM and inactive = higher.

Test systems include NCI-H460; NCI-H23; UO-31; SN12C; HCC 2998; RXF 393; Malme-3M; IGROV-1; SNB-75; CAKI-1; SF-268; NCI-H226; CCRF-CEM; PC-3; MDA-N; OVCAR-5; COLO 205; SK-MEL-2; SF-539; TK-10.
Holding throughout (assay): NCI-60 cell line screen, 48 h

Consider `Cc1cccc(Nc2nc3ccccc3nc2NS(=O)(=O)c2ccccc2)c1`, for which the GI50 with NCI-H460 is 15.6 µM (inactive); in the experiment with NCI-H23 it was 18.3 µM (inactive); in the experiment with UO-31, 15.1 µM (inactive); in the experiment on SN12C, 22.2 µM (inactive); with HCC 2998, 0.721 µM (active); with RXF 393, 27.7 µM (inactive). Further, the GI50 in the experiment on Malme-3M is 17.1 µM (inactive); in the experiment with IGROV-1 it was 19.9 µM (inactive); in the experiment on SNB-75, 14.4 µM (inactive); in the experiment on CAKI-1 it was 44.1 µM (inactive); in the experiment with SF-268, 44.3 µM (inactive); with NCI-H226, 70 µM (inactive). Besides, the GI50 is 18.2 µM (inactive) in the experiment with CCRF-CEM; 14.4 µM (inactive) in the experiment with PC-3; 42.9 µM (inactive) with MDA-N; > 100 µM (inactive) in the experiment with OVCAR-5; 16.1 µM (inactive) in the experiment with COLO 205; 14.3 µM (inactive) in the experiment with SK-MEL-2. Besides, the GI50 was 33.8 µM (inactive) with SF-539 and 22.9 µM (inactive) in the experiment on TK-10.

Consider `CN1CCN([C@H]2C[C@H]3[C@@H]4CC=C5C[C@@H](N6CCCC6)CC[C@]5(C)[C@H]4CC[C@]3(C)[C@H]2O)CC1`, for which the GI50 with NCI-H460 was 71.8 µM (inactive); with NCI-H23, > 100 µM (inactive); with UO-31, 94.4 µM (inactive); with SN12C, > 100 µM (inactive); with HCC 2998, 33.3 µM (inactive); with RXF 393, 10.7 µM (inactive). For the same compound, the GI50 is 19.9 µM (inactive) in the experiment with Malme-3M; 67.8 µM (inactive) in the experiment on IGROV-1; > 100 µM (inactive) in the experiment on SNB-75; > 10 µM (inactive) with CAKI-1; 32.7 µM (inactive) in the experiment with SF-268; > 100 µM (inactive) in the experiment with NCI-H226. Further, the GI50 in the experiment on CCRF-CEM is 38.6 µM (inactive); in the experiment with PC-3 it was 47.9 µM (inactive); in the experiment with MDA-N, 19 µM (inactive); in the experiment with OVCAR-5, 50.2 µM (inactive); in the experiment with COLO 205 it was 12.6 µM (inactive); with SK-MEL-2 it was > 100 µM (inactive). The GI50 with SF-539 was 16.2 µM (inactive); in the experiment with TK-10 it was > 100 µM (inactive).

For `COc1cc2c(c(OC)c1OC)C(=O)[C@@H]1[C@H]2N1C(=O)NCCCl`, the GI50 is 40.6 µM (inactive) with NCI-H460; 43.4 µM (inactive) in the experiment with NCI-H23; 73.5 µM (inactive) in the experiment with UO-31; 54.7 µM (inactive) in the experiment with SN12C; > 100 µM (inactive) in the experiment with HCC 2998; 53.3 µM (inactive) with RXF 393. Besides, the GI50 with Malme-3M is 64.7 µM (inactive); in the experiment on IGROV-1, 33.5 µM (inactive); with SNB-75, 40.9 µM (inactive); in the experiment on CAKI-1 it was 56.8 µM (inactive); in the experiment with SF-268 it was 76.9 µM (inactive); in the experiment on NCI-H226 it was 64 µM (inactive). The GI50 in the experiment on CCRF-CEM was 30.1 µM (inactive); with PC-3 it was 58.2 µM (inactive); in the experiment on MDA-N, 32.4 µM (inactive); with OVCAR-5, > 100 µM (inactive); in the experiment with COLO 205, 27 µM (inactive); in the experiment on SK-MEL-2 it was > 100 µM (inactive). The GI50 is 72.4 µM (inactive) with SF-539 and > 100 µM (inactive) in the experiment on TK-10.

As for `CCCCCCCc1ccc(-c2nnc(/N=N/c3ccc(OCCCCC)cc3)s2)s1`, the GI50 with NCI-H460, with NCI-H23, in the experiment on UO-31, with SN12C, in the experiment with HCC 2998 and in the experiment on RXF 393 was > 100 µM (inactive) throughout. For the same compound, the GI50 in the experiment with Malme-3M was > 100 µM (inactive); with IGROV-1, 79.1 µM (inactive); in the experiment on SNB-75, > 100 µM (inactive); in the experiment on CAKI-1, > 100 µM (inactive); with SF-268, > 100 µM (inactive); in the experiment on NCI-H226, > 100 µM (inactive). Further, the GI50 in the experiment on CCRF-CEM, in the experiment on PC-3, in the experiment with MDA-N, in the experiment with OVCAR-5, in the experiment on COLO 205 and with SK-MEL-2 was > 100 µM (inactive) in each case. The GI50 with SF-539 and in the experiment with TK-10 was > 100 µM (inactive) in each case.

For the compound `Cc1nc2c(cc1OCc1ccccc1)C(=O)C1=C(C2=O)C2OC(=O)CC2OC1(C)C` (stereo not given), the GI50 in the experiment with NCI-H460 was 1.32 µM (inactive); with NCI-H23 it was 0.944 µM (active); with UO-31, 1.68 µM (inactive); with SN12C it was 0.182 µM (active); in the experiment with HCC 2998 it was 0.579 µM (active); in the experiment on RXF 393, 0.349 µM (active). Also, the GI50 was 0.474 µM (active) with Malme-3M; 0.312 µM (active) in the experiment on IGROV-1; 1.66 µM (inactive) in the experiment on SNB-75; 0.468 µM (active) in the experiment on CAKI-1; 0.475 µM (active) in the experiment on SF-268; 1.09 µM (active) in the experiment on NCI-H226. In addition, the GI50 with CCRF-CEM is 0.17 µM (active); with PC-3, 0.56 µM (active); in the experiment with MDA-N it was 0.404 µM (active); in the experiment on OVCAR-5 it was 0.973 µM (active); in the experiment with COLO 205, 0.326 µM (active); with SK-MEL-2, 1.46 µM (inactive). In addition, the GI50 is 0.728 µM (active) in the experiment with SF-539 and 1.43 µM (inactive) in the experiment on TK-10.

`O=C1c2c(Br)sc(Br)c2[C@@H](NC(=O)C(F)(F)F)C1Br` (stereo not given in full): the GI50 in the experiment on NCI-H460 is 11.7 µM (inactive); with NCI-H23, 2.53 µM (inactive); with UO-31, 5.92 µM (inactive); in the experiment with SN12C it was 2.72 µM (inactive); in the experiment with HCC 2998, 3.1 µM (inactive); in the experiment on RXF 393 it was 2.14 µM (inactive). In addition, the GI50 was 2.24 µM (inactive) in the experiment with Malme-3M; 2.92 µM (inactive) in the experiment with IGROV-1; 4.92 µM (inactive) in the experiment with SNB-75; 3.6 µM (inactive) in the experiment on CAKI-1; 3.71 µM (inactive) in the experiment with SF-268; 5.53 µM (inactive) with NCI-H226. Moreover, the GI50 in the experiment with CCRF-CEM is 1.88 µM (inactive); with PC-3, 4.3 µM (inactive); with MDA-N it was 2.87 µM (inactive); with OVCAR-5, 10.7 µM (inactive); in the experiment on COLO 205, 2.01 µM (inactive); with SK-MEL-2 it was 5.82 µM (inactive). For the same compound, the GI50 in the experiment with SF-539 was 2.73 µM (inactive); in the experiment with TK-10, 16.8 µM (inactive).

With `O=C1CSC(c2ccccc2O)N1c1nc2cc3sc(N4C(=O)CSC4c4ccccc4O)nc3cc2s1` (stereo not given), the GI50 was 2.3 µM (inactive) with NCI-H460; 9.57 µM (inactive) in the experiment on NCI-H23; 23.3 µM (inactive) in the experiment on UO-31; > 40.5 µM (inactive) in the experiment on SN12C; > 100 µM (inactive) with HCC 2998; > 100 µM (inactive) in the experiment on RXF 393. The GI50 with Malme-3M was > 77.3 µM (inactive); in the experiment with IGROV-1 it was 18.9 µM (inactive); with SNB-75 it was 99.8 µM (inactive); with CAKI-1, 37.4 µM (inactive); with SF-268 it was > 86.9 µM (inactive); in the experiment on NCI-H226 it was 21 µM (inactive). The GI50 was 3.93 µM (inactive) with CCRF-CEM; 45.7 µM (inactive) in the experiment on PC-3; 34.8 µM (inactive) with MDA-N; > 100 µM (inactive) with OVCAR-5; 3.61 µM (inactive) in the experiment on COLO 205; > 100 µM (inactive) with SK-MEL-2. The GI50 in the experiment on SF-539 is 59.6 µM (inactive); in the experiment on TK-10 it was > 100 µM (inactive).

With `Cc1ccccc1NC(=O)O/N=C(\Cl)C(C)C`, the GI50 with NCI-H460 is 17.8 µM (inactive); with NCI-H23 it was 16.7 µM (inactive); in the experiment with UO-31, 17.4 µM (inactive); in the experiment on SN12C, 1.62 µM (inactive); with HCC 2998, 17.3 µM (inactive); in the experiment with RXF 393, 12.6 µM (inactive). For the same compound, the GI50 in the experiment with Malme-3M is 2.36 µM (inactive); in the experiment on IGROV-1, 9.42 µM (inactive); with SNB-75, 17.1 µM (inactive); in the experiment on CAKI-1, 1.77 µM (inactive); in the experiment on SF-268, 19.3 µM (inactive); in the experiment with NCI-H226 it was 16 µM (inactive). The GI50 was 1.48 µM (inactive) with CCRF-CEM; 17.1 µM (inactive) in the experiment on PC-3; 2.72 µM (inactive) in the experiment with MDA-N; 20.9 µM (inactive) with OVCAR-5; 1.75 µM (inactive) with COLO 205; 17.8 µM (inactive) in the experiment on SK-MEL-2. The GI50 in the experiment on SF-539 was 9.08 µM (inactive); in the experiment on TK-10, 3.94 µM (inactive).

In the case of `CC(C)N(C(C)C)S(=O)(=O)C[C@]12CC[C@H](CC13OCC(CS(=O)(=O)c1ccccc1)O3)C2(C)C` (stereo not given in full), the GI50 in the experiment with NCI-H460 was 39.2 µM (inactive); in the experiment with NCI-H23 it was 47.3 µM (inactive); in the experiment on UO-31, 69.5 µM (inactive); in the experiment on SN12C, 47.8 µM (inactive); with HCC 2998 it was 54.5 µM (inactive); in the experiment on RXF 393, 49 µM (inactive). The GI50 with Malme-3M was 89.1 µM (inactive); in the experiment with IGROV-1 it was > 28.7 µM (inactive); in the experiment on SNB-75, 27.6 µM (inactive); with CAKI-1, 81.3 µM (inactive); in the experiment on SF-268 it was 59.2 µM (inactive); in the experiment with NCI-H226, 34.1 µM (inactive). The GI50 in the experiment with CCRF-CEM was 32.1 µM (inactive); in the experiment on PC-3, 35.3 µM (inactive); with MDA-N, 51.4 µM (inactive); with OVCAR-5, > 76.4 µM (inactive); in the experiment with COLO 205 it was 17.6 µM (inactive); with SK-MEL-2, 52.5 µM (inactive). For the same compound, the GI50 with SF-539 is 44.8 µM (inactive); in the experiment on TK-10 it was 44.9 µM (inactive).

As for `CCCCCCCCCCCCCCC(O)C[N+](C)(CCO)CCO` (stereo not given), the GI50 was 2.56 µM (inactive) in the experiment on NCI-H460; 4.49 µM (inactive) with NCI-H23; 4.27 µM (inactive) in the experiment on UO-31; 4.7 µM (inactive) in the experiment with SN12C; 1.73 µM (inactive) in the experiment on HCC 2998; 1.41 µM (inactive) in the experiment on RXF 393. For the same compound, the GI50 in the experiment with Malme-3M is 2.06 µM (inactive); in the experiment on IGROV-1, 1.15 µM (inactive); in the experiment with SNB-75, 0.746 µM (active); in the experiment on CAKI-1 it was 1.32 µM (inactive); in the experiment with SF-268, 1.89 µM (inactive); in the experiment with NCI-H226 it was 2.04 µM (inactive). Further, the GI50 in the experiment with CCRF-CEM is 1.57 µM (inactive); in the experiment with PC-3 it was 1.72 µM (inactive); in the experiment on MDA-N, 5.86 µM (inactive); with OVCAR-5 it was 2.46 µM (inactive); in the experiment with COLO 205, 1.72 µM (inactive); in the experiment on SK-MEL-2, 7.31 µM (inactive). Further, the figures for the GI50 in the experiment on SF-539 and with TK-10 were 2.4 µM (inactive) and 1.39 µM (inactive), respectively.
